Data: paper PMC5940854, “Nitrothiophene carboxamides, a novel narrow spectrum antibacterial series: Mechanism of action and Efficacy” (Scientific Reports, 2018)
Converted amounts (≈) assume the structure as drawn.

Experiments:
[1] = test system: E. coli clinical isolates; assay: MIC on panel of E. coli clinical isolates; assay type: cell-based
Cytotoxicity, MTS assay = assay type: cell-based; settings: human, A549 cells
Protocol: Cytotoxicity of the compounds was evaluated using MTS ((3-(4,5-dimethylthiazol-2-yl)-5-(3-carboxymethoxyphenyl)-2-(4-sulfophenyl)-2H-tetrazolium)) assay. A-549 cells were seeded in a 96 well plate at a density if 1.5 × 10^4 cells/well (100 μL). The cells were cultured in a CO2 incubator at 37 °C. A ten point concentration curve was set up starting from 5 nM to 100 μM with 3 fold dilution along with positive, negative and blank controls. The final concentration of DMSO was maintained at 1% throughout the plate. The compound treatment was carried out for 24 hrs. After incubation MTS reagent was added followed by 30 min incubation. The absorbance was measured at 490 nm. Data analysis was done using GraphPad Prism 6.0.

NfsA = target: T1, NfsA (Escherichia coli, UniProt P17117); assay: Nitroreductase activity assay, NfsA; assay type: biochemical, E. coli; settings: 20 μM compound, 40 μM NADPH, 10 nM NfsA; slope of initial velocity
T1 construct: His-tag; made in house; host or cells: E. coli BL21(DE3), pET28a (pET-nfsA)
Protocol: Enzyme reducing each of the substrates are measured by monitoring the concomitant oxidation of NADPH by NfsA and NADH by NfsB in a fluorescence based assay. The reduction in fluorescence due to the NADH oxidation (excitation 350 nm, emission 460 nm) and NADPH oxidation (excitation 340 nm, emission 485 nm) is recorded using a TECAN Infinite M200Pro spectrophotometer, in half area solid black microtiter plates. This change in fluorescence directly corelates to the reduction of the nitro-compounds in the reaction. The NfsA assays is performed by initiating the reactions with 40 μM NADPH and 10 nM NfsA in 50 mM Tris-HCl (pH 7.4), 5 mM EDTA against 20 μM substrate (5 μl of compounds/substrate dissolved in 100% DMSO) in a total reaction volume of 100 μl at 25 °C. Similarly, the NfsB assay is also performed by initiating the reactions with 40 μM NADH and 70 nM NfsB in 50 mM Tris-HCl (pH 7.4), 5 mM EDTA against 20 μM substrate in a total reaction volume of 100 μl. […] All reactions are performed in replicates of two or more and the fluorescence measurements are made at 10 second intervals for 5–10 minutes.
Low solubility of the compounds/substrates under the NfsA and NfsB assay conditions precluded determination of their Km. […] The relative fluorescence units (RFU) obtained due to NADPH (excitation 340 nm, emission 485 nm) or NADH (excitation 350 nm, emission 460 nm) oxidation of the first 90 sec reaction is used to compute the slopes using linear regression analysis on GraphPad Prism. Appropriate blank reactions are included to account for background fluorescence/quenching from each of the components such as DMSO, the compound itself and auto-oxidation of NADPH or NADH. Activity of NfsB with a known substrate such as nitrofurantoin is used as a benchmark to plot the relative activities with all the test compounds.

T1 sequence (P17117 whole entry): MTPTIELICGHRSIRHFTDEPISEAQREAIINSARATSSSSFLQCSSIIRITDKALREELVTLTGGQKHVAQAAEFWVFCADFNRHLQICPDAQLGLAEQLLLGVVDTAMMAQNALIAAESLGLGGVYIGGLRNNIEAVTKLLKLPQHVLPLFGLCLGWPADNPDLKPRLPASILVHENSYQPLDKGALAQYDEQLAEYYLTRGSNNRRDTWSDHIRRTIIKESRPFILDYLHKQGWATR

Q: For `COc1cc(-c2csc(NC(=O)c3ccc([N+](=O)[O-])s3)n2)ccc1Cl` [compound 20, N-(4-(4-chloro-3-methoxyphenyl)thiazol-2-yl)-5-nitrothiophene-2-carboxamide], which “MIC Range” value ([1]; 75 E.coli clinical isolates) is on record?
A: The value was 0.6 to 10 µg/mL.

Q: And the MIC50 ([1]; Escherichia coli, 75 E.coli clinical isolates, 50% clinical isolates)?
A: The MIC50 was 5 µg/mL (≈ 12.6 µM).

Q: And the MIC90 ([1]; Escherichia coli, 75 E.coli clinical isolates, 90% clinical isolates)?
A: Its MIC90 is 10 µg/mL (≈ 25.3 µM).

Q: What about the MIC ([1]; strain SEC001) of the same compound?
A: Its MIC is 8 µg/mL (≈ 20.2 µM).

Q: What about the MIC ([1]; strain SEC002) of the same compound?
A: Its MIC is 8 µg/mL (≈ 20.2 µM).

Q: And the MIC ([1]; strain SEC003)?
A: The MIC was 8 µg/mL (≈ 20.2 µM).

Q: What about the MIC ([1]; strain SEC004) of the same compound?
A: The MIC was 8 µg/mL (≈ 20.2 µM).

Q: And the MIC ([1]; strain SEC005)?
A: Its MIC is 8 µg/mL (≈ 20.2 µM).

Q: And the MIC ([1]; strain SEC006)?
A: Its MIC is 8 µg/mL (≈ 20.2 µM).

Q: And the MIC ([1]; strain SEC007)?
A: The MIC was 8 µg/mL (≈ 20.2 µM).

Q: And the MIC ([1]; strain SEC008)?
A: Its MIC is 8 µg/mL (≈ 20.2 µM).

Q: What about the MIC ([1]; strain SEC011) of the same compound?
A: Its MIC is 8 µg/mL (≈ 20.2 µM).

Q: What about the MIC ([1]; strain SEC012) of the same compound?
A: Its MIC is 2 µg/mL (≈ 5.05 µM).

Q: And the MIC ([1]; strain SEC013)?
A: The MIC was 8 µg/mL (≈ 20.2 µM).

Q: And the MIC ([1]; strain SEC014)?
A: Its MIC is 8 µg/mL (≈ 20.2 µM).

Q: What about the MIC ([1]; strain SEC015) of the same compound?
A: The MIC was 8 µg/mL (≈ 20.2 µM).

Q: What about the MIC ([1]; strain SEC016) of the same compound?
A: Its MIC is 2 µg/mL (≈ 5.05 µM).

Q: And the MIC ([1]; strain SEC017)?
A: Its MIC is 0.06 µg/mL (≈ 0.152 µM).

Q: And the MIC ([1]; strain SEC018)?
A: Its MIC is 1 µg/mL (≈ 2.53 µM).

Q: And the MIC ([1]; strain SEC019)?
A: Its MIC is 2 µg/mL (≈ 5.05 µM).

Q: And the MIC ([1]; strain SEC020)?
A: The MIC was 8 µg/mL (≈ 20.2 µM).

Q: And the MIC ([1]; strain SEC021)?
A: The MIC was 1 µg/mL (≈ 2.53 µM).

Q: And the MIC ([1]; strain SEC022)?
A: The MIC was 4 µg/mL (≈ 10.1 µM).

Q: What about the MIC ([1]; strain SEC023) of the same compound?
A: Its MIC is 8 µg/mL (≈ 20.2 µM).

Q: And the MIC ([1]; strain SEC024)?
A: Its MIC is 8 µg/mL (≈ 20.2 µM).

Q: What about the MIC ([1]; strain SEC025) of the same compound?
A: Its MIC is 4 µg/mL (≈ 10.1 µM).

Q: And the MIC ([1]; strain SEC026)?
A: Its MIC is 8 µg/mL (≈ 20.2 µM).

Q: And the MIC ([1]; strain SEC028)?
A: Its MIC is 1 µg/mL (≈ 2.53 µM).

Q: And the MIC ([1]; strain SEC029)?
A: The MIC was 2 µg/mL (≈ 5.05 µM).

Q: And the MIC ([1]; strain SEC031)?
A: The MIC was 1 µg/mL (≈ 2.53 µM).

Q: And the MIC ([1]; strain SEC032)?
A: Its MIC is 8 µg/mL (≈ 20.2 µM).

Q: And the MIC ([1]; strain SEC033)?
A: Its MIC is 2 µg/mL (≈ 5.05 µM).

Q: What about the MIC ([1]; strain SEC034) of the same compound?
A: The MIC was 8 µg/mL (≈ 20.2 µM).

Q: And the MIC ([1]; strain SEC035)?
A: Its MIC is 8 µg/mL (≈ 20.2 µM).

Q: And the MIC ([1]; strain SEC036)?
A: Its MIC is 8 µg/mL (≈ 20.2 µM).

Q: What about the MIC ([1]; strain SEC037) of the same compound?
A: Its MIC is 1 µg/mL (≈ 2.53 µM).

Q: What about the MIC ([1]; strain SEC038) of the same compound?
A: Its MIC is 0.25 µg/mL (≈ 0.632 µM).

Q: What about the MIC ([1]; strain SEC039) of the same compound?
A: Its MIC is 8 µg/mL (≈ 20.2 µM).

Q: And the MIC ([1]; strain SEC040)?
A: The MIC was 2 µg/mL (≈ 5.05 µM).

Q: And the MIC ([1]; strain SEC041)?
A: Its MIC is 8 µg/mL (≈ 20.2 µM).

Q: And the MIC ([1]; strain SEC042)?
A: The MIC was 8 µg/mL (≈ 20.2 µM).

Q: And the MIC ([1]; strain SEC043)?
A: Its MIC is 8 µg/mL (≈ 20.2 µM).

Q: And the MIC ([1]; strain SEC044)?
A: Its MIC is 8 µg/mL (≈ 20.2 µM).

Q: What about the MIC ([1]; strain SEC045) of the same compound?
A: Its MIC is 2 µg/mL (≈ 5.05 µM).

Q: What about the MIC ([1]; strain SEC046) of the same compound?
A: Its MIC is 8 µg/mL (≈ 20.2 µM).

Q: What about the MIC ([1]; strain SEC047) of the same compound?
A: Its MIC is 0.25 µg/mL (≈ 0.632 µM).

Q: What about the MIC ([1]; strain SEC048) of the same compound?
A: Its MIC is 8 µg/mL (≈ 20.2 µM).

Q: And the MIC ([1]; strain SEC049)?
A: The MIC was 8 µg/mL (≈ 20.2 µM).

Q: What about the MIC ([1]; strain SEC050) of the same compound?
A: The MIC was 8 µg/mL (≈ 20.2 µM).

Q: And the MIC ([1]; strain SEC051)?
A: Its MIC is 8 µg/mL (≈ 20.2 µM).

Q: And the MIC ([1]; strain SEC052)?
A: The MIC was 1 µg/mL (≈ 2.53 µM).

Q: And the MIC ([1]; strain SEC053)?
A: The MIC was 2 µg/mL (≈ 5.05 µM).

Q: What about the MIC ([1]; strain SEC054) of the same compound?
A: The MIC was 2 µg/mL (≈ 5.05 µM).

Q: And the MIC ([1]; strain SEC055)?
A: Its MIC is 2 µg/mL (≈ 5.05 µM).

Q: And the MIC ([1]; strain SEC057)?
A: Its MIC is 8 µg/mL (≈ 20.2 µM).

Q: What about the MIC ([1]; strain SEC058) of the same compound?
A: Its MIC is 8 µg/mL (≈ 20.2 µM).

Q: What about the MIC ([1]; strain SEC059) of the same compound?
A: The MIC was 2 µg/mL (≈ 5.05 µM).

Q: What about the MIC ([1]; strain SEC060) of the same compound?
A: Its MIC is 8 µg/mL (≈ 20.2 µM).

Q: What about the MIC ([1]; strain SEC061) of the same compound?
A: The MIC was 4 µg/mL (≈ 10.1 µM).

Q: And the MIC ([1]; strain SEC062)?
A: Its MIC is 1 µg/mL (≈ 2.53 µM).

Q: And the MIC ([1]; strain SEC063)?
A: Its MIC is 2 µg/mL (≈ 5.05 µM).

Q: What about the MIC ([1]; strain SEC064) of the same compound?
A: The MIC was 8 µg/mL (≈ 20.2 µM).

Q: And the MIC ([1]; strain SEC065)?
A: Its MIC is 2 µg/mL (≈ 5.05 µM).

Q: What about the MIC ([1]; strain SEC067) of the same compound?
A: Its MIC is 2 µg/mL (≈ 5.05 µM).

Q: And the MIC ([1]; strain SEC068)?
A: The MIC was 8 µg/mL (≈ 20.2 µM).

Q: What about the MIC ([1]; strain SEC069) of the same compound?
A: The MIC was 8 µg/mL (≈ 20.2 µM).

Q: What about the MIC ([1]; strain SEC070) of the same compound?
A: The MIC was 8 µg/mL (≈ 20.2 µM).

Q: And the MIC ([1]; strain SEC071)?
A: The MIC was 1 µg/mL (≈ 2.53 µM).

Q: And the MIC ([1]; strain SEC072)?
A: The MIC was 4 µg/mL (≈ 10.1 µM).

Q: What about the MIC ([1]; strain SEC073) of the same compound?
A: The MIC was 8 µg/mL (≈ 20.2 µM).

Q: And the MIC ([1]; strain SEC074)?
A: The MIC was 8 µg/mL (≈ 20.2 µM).

Q: And the MIC ([1]; strain SEC075)?
A: The MIC was 4 µg/mL (≈ 10.1 µM).

Q: And the MIC ([1]; strain SEC076)?
A: The MIC was 4 µg/mL (≈ 10.1 µM).

Q: What about the MIC ([1]; strain SEC077) of the same compound?
A: The MIC was 2 µg/mL (≈ 5.05 µM).

Q: What about the MIC ([1]; strain SEC078) of the same compound?
A: Its MIC is 4 µg/mL (≈ 10.1 µM).

Q: What about the MIC ([1]; strain SEC079) of the same compound?
A: Its MIC is 2 µg/mL (≈ 5.05 µM).

Q: What about the MIC ([1]; strain SEC080) of the same compound?
A: The MIC was 4 µg/mL (≈ 10.1 µM).

Q: And the IC50 at 24 h (Cytotoxicity, MTS assay)?
A: Its IC50 at 24 h is 8.3 µg/mL (≈ 21 µM).

Q: And the “NfsA activity (rate of compound conversion)” value (NfsA)?
A: Its value is 0.61 µM/min.
